Measured values published in US4517202A, “Prostaglandin analogues” (May & Baker Limited, priority 1982, dated 1985).
Converted amounts (≈) assume the structure as drawn. Read-outs that look alike come from different tables or passages of the source. Blank lines part the entries; values can stand above or below the compound they belong to.

Columns and labels:
[1] = cited from earlier work
[2] = test system: artery and some other kinds of smooth muscle; settings: cited from earlier work
[3] = test system: arachidonic acid-induced blood platelet aggregation of the human; settings: human platelets; cited from earlier work
blood platelets = settings: cited from earlier work
[4] = test system: collagen-induced β-thromboglobulin release; assay: inhibition of collagen-induced β-thromboglobulin release in vitro in human blood; format: cell-based; settings: read-out: ED50 (concentration which produced 50% inhibition of the β-thromboglobulin release)
diastolic blood pressure = assay: fall in diastolic blood pressure in anaesthetised rats; format: in vivo; settings: rats anaesthetised with pentobarbitone; intravenously at a rate of 45 μg/kg animal body weight
Method: In other laboratory tests, compound B produced a 25% fall in diastolic blood pressure in rats (anaesthetised with pentobarbitone) when administered intravenously at a rate of 45 μg/kg animal body weight.

[5] = isomerisation of (Z)-isomer at ambient temperature; format: physicochemical

Structure (SMILES): CCCCC[C@H](O)/C=C/[C@@H]1[C@H]2C/C(=C/CCCC(=O)O)O[C@H]2C[C@H]1O [PGI2, (5Z,13E)-(9S,11R,15S)-6,9-epoxy-11,15-dihydroxyprosta-5,13-dienoic acid]
time to deactivation in a buffer solution ([1]; pH 7.6, 22° C.): 20 min | time to deactivation in a buffer solution ([1]; pH 7.6, 37° C.): 10 min | activity on the artery and some other kinds of smooth muscle [2]: strong relaxing activity | inhibition of arachidonic acid-induced blood platelet aggregation [3]: strongly inhibits

Structure (SMILES): CCCCC[C@H](O)/C=C/[C@H]1O[C@H]2C[C@H](O2)[C@@H]1C/C=C\CCCC(=O)O [thromboxane A2]
activity on the artery and some other kinds of smooth muscle [2]: contracting activity | aggregating activity on blood platelets (blood platelets): aggregating activity

Structure (SMILES): CCCCCC(O)/C=C/[C@H]1CC[C@@H]2C(=O)/C(=C/CCCC(=O)O)C[C@@H]21 (relative stereo) [Compound E, (±)-(5E,13E)-(9S), [mixture of (15R) and (15S)]-6a-oxo-6,9-methano-15-hydroxyprosta-5,13-dienoic acid]
IC50 [4]: 34 µg/mL

Structure (SMILES): O=C(O)CCC/C=C1\C[C@H]2[C@H](CC[C@@H]2/C=C/[C@@H](O)C2CCCCC2)C1=O (relative stereo) [Compound B, (±)-(5E,13E)-(9S,15S)-6a-oxo-6,9-methano-15-cyclohexyl-15-hydroxy-16,17,18,19,20-pentanorprosta-5,13-dienoic acid]
IC50 [4]: 5 µg/mL (≈ 13.9 µM) | fall in diastolic blood pressure (diastolic blood pressure): 25%

Structure (SMILES): O=C(O)CCC/C=C1/C[C@H]2[C@H](CC[C@@H]2/C=C/[C@@H](O)C2CCCCC2)C1=O (relative stereo) [(Z)-isomer]
isomerisation back to the (E)-isomer [5]: slowly isomerised back to the (E)-isomer

Second part, the compound after the results:

IC50 [4]: < 17 µg/mL
Structure (SMILES): CCCCCC(O)/C=C/[C@H]1CC[C@@H]2C(=O)/C(=C\CCCC(=O)O)C[C@@H]21 (relative stereo) [Compound F, (±)-(5Z,13E)-(9S), [mixture of (15R) and (15S)]-6a-oxo-6,9-methano-15-hydroxyprosta-5,13-dienoic acid]

IC50 [4]: < 17 µg/mL
Structure (SMILES): O=C(O)CCC/C=C1\C[C@H]2[C@H](CC[C@@H]2/C=C/C(O)C2CCCCC2)C1=O (relative stereo) [Compound I, (±)-(5E,13E)-(9S),[mixture of (15R) and (15S)]-6a-oxo-6,9-methano-15-cyclohexyl-15-hydroxy-16,17,18,19,20-pentanorprosta-5,13-dienoic acid]
